Assay: Assay (I): Determination of Solubility (96-well plate, pH 3.0-11.0, organic solvent 0-70% w/w, UV absorption at 280 nm)
Format: physicochemical
Settings: Method 2 (precipitation), 5° C.
Description: Assay (I): Determination of Solubility
96-Well Plate Preparation
96-well plates containing target peptide in a solid form were prepared in one of two ways:
Method 1 (evaporation): Addition of 100 μl stock solution of said peptide at a concentration of 4-6 mg/ml to each well of a 96-well half area plate (150 μl well size). Subsequently the solvent was evaporated by applying a vacuum until the solvent was completely removed.
Method 2 (precipitation): Addition of a certain volume of a stock solution of said peptide containing to each well of a 96-well half area plate followed by the addition of a certain volume of concentrated phosphoric acid to obtain a pH of 4.6 followed by addition of a certain volume of ethanol resulting in a final ethanol concentration of 20% v/v. Subsequently the plate was stored at 4° C. for 1 h and then centrifuged at 4,000 rpm for 20 min. Finally the supernatant was removed. The concentration of the stock solution was chosen in a way that the final amount of peptide after supernatant removal was >0.4 mg per well.
In both cases the stock solution was prepared by adding de-ionized water to a certain amount of powder of said peptide followed by a stepwise addition of small amounts of a concentrated sodium hydroxide solution until said peptide was completely in solution.
To determine solubility of a target peptide at different pH and organic solvent concentrations, two different buffer systems were used in independent experiments to cover the whole range from pH 3.0 to pH 11.0. Buffer system 1 covers pH 3.0-7.5 and buffer system 2 covers pH 7.5-11.0. For each buffer system 96 different solvent compositions were premixed in the following way: • 1. A low pH buffer (adjusted to either pH 3.0 or pH 7.5) and a high pH buffer (adjusted to either pH 7.5 or pH 11.0) were mixed at 8 different ratios to obtain values between pH 3.0 and pH 7.5 or pH 7.5 and pH 11.0, respectively. The total volume after mixing was 300 μl. • 2. 12 different amounts of organic solvent were then added to these buffers to obtain organic solvent (e.g. ethanol) concentrations between 0 and 70% w/w. • 3. Water was then added to obtain a total weight of 1.0 g of solvent in each well.
After preparing the 96 different solvent systems, 100 μl of each system was transferred to the 96-well plate containing the solid form of the target peptide (prepared as described in the section “96-well plate preparation”). The plate was then stored at a given temperature (between 5° C. and 70° C.) for a given time on a rotating shaker set to 400 rpm. At regular time intervals the plate was centrifuged (4,000 rpm for 10 min) and a 10 μl sample was taken from each well. The samples were then analysed by UV absorption at 280 nm for peptide quantification. Peptide concentration results are given as UV absorption at 280 nm of the sample subtracted UV absorption at 280 nm of a well comprising 10 μl water.
The buffers used were as follows: • Buffer system 1 (for the pH range from pH 3.0-7.5)
• Buffer system 2 (for the pH ranae from pH 7.5-11.0)
Solubility of liraglutide was determined using Assay (I) described herein. Liraglutide was prepared using Method 1 (evaporation) or Method 2 (precipitation) as described in subsection “96-well plate preparation”.

**Q.** Which GLP-1 peptide concentration (MeCN 57.3% w/w, pH 9.50, 5 min, before removal of outliers) does the source give for `CCCCCCCCCCCCCCCC(=O)N[C@@H](CCC(=O)NCCCC[C@H](NC(=O)[C@H](C)NC(=O)[C@H](C)NC(=O)[C@H](CCC(N)=O)NC(=O)CNC(=O)[C@H](CCC(=O)O)NC(=O)[C@H](CC(C)C)NC(=O)[C@H](Cc1ccc(O)cc1)NC(=O)[C@H](CO)NC(=O)[C@H](CO)NC(=O)[C@@H](NC(=O)[C@H](CC(=O)O)NC(=O)[C@H](CO)NC(=O)[C@@H](NC(=O)[C@H](Cc1ccccc1)NC(=O)[C@@H](NC(=O)CNC(=O)[C@H](CCC(=O)O)NC(=O)[C@H](C)NC(=O)[C@@H](N)Cc1cnc[nH]1)[C@@H](C)O)[C@@H](C)O)C(C)C)C(=O)N[C@@H](CCC(=O)O)C(=O)N[C@@H](Cc1ccccc1)C(=O)N[C@H](C(=O)N[C@@H](C)C(=O)N[C@@H](Cc1c[nH]c2ccccc12)C(=O)N[C@@H](CC(C)C)C(=O)N[C@H](C(=O)N[C@@H](CCCNC(=N)N)C(=O)NCC(=O)N[C@@H](CCCNC(=N)N)C(=O)NCC(=O)O)C(C)C)[C@@H](C)CC)C(=O)O` [liraglutide, Arg34,Lys26-(N-epsilon-(gamma-L-glutamyl(N-alfa-hexadecanoyl)))-GLP-1(7-37)] here?
**A.** 0.5 mg/mL

**Q.** And the GLP-1 peptide concentration (MeCN 57.3% w/w, pH 9.50, 180 min, after removal of outliers)?
**A.** >4.0 mg/mL

**Q.** And the GLP-1 peptide concentration (MeCN 57.3% w/w, pH 9.50, 180 min, before removal of outliers)?
**A.** >4.0 mg/mL

**Q.** And the GLP-1 peptide concentration (MeCN 57.3% w/w, pH 9.50, 24 h, after removal of outliers)?
**A.** 2.5 mg/mL

**Q.** What about the GLP-1 peptide concentration (MeCN 57.3% w/w, pH 9.50, 24 h, before removal of outliers) of the same compound?
**A.** 2.5 mg/mL

**Q.** And the GLP-1 peptide concentration (MeCN 57.3% w/w, pH 10.00, 5 min, after removal of outliers)?
**A.** 0.4 mg/mL

**Q.** What about the GLP-1 peptide concentration (MeCN 57.3% w/w, pH 10.00, 5 min, before removal of outliers) of the same compound?
**A.** 0.4 mg/mL

**Q.** And the GLP-1 peptide concentration (MeCN 57.3% w/w, pH 10.00, 180 min, after removal of outliers)?
**A.** >4.0 mg/mL

**Q.** And the GLP-1 peptide concentration (MeCN 57.3% w/w, pH 10.00, 180 min, before removal of outliers)?
**A.** >4.0 mg/mL

**Q.** And the GLP-1 peptide concentration (MeCN 57.3% w/w, pH 10.00, 24 h, after removal of outliers)?
**A.** 1.1 mg/mL

**Q.** What about the GLP-1 peptide concentration (MeCN 57.3% w/w, pH 10.00, 24 h, before removal of outliers) of the same compound?
**A.** 1.1 mg/mL

**Q.** What about the GLP-1 peptide concentration (MeCN 57.3% w/w, pH 10.50, 5 min, after removal of outliers) of the same compound?
**A.** 0.5 mg/mL

**Q.** And the GLP-1 peptide concentration (MeCN 57.3% w/w, pH 10.50, 5 min, before removal of outliers)?
**A.** 0.5 mg/mL

**Q.** What about the GLP-1 peptide concentration (MeCN 57.3% w/w, pH 10.50, 180 min, after removal of outliers) of the same compound?
**A.** >4.0 mg/mL

**Q.** What about the GLP-1 peptide concentration (MeCN 57.3% w/w, pH 10.50, 180 min, before removal of outliers) of the same compound?
**A.** >4.0 mg/mL

**Q.** What about the GLP-1 peptide concentration (MeCN 57.3% w/w, pH 10.50, 24 h, after removal of outliers) of the same compound?
**A.** 1.7 mg/mL

**Q.** What about the GLP-1 peptide concentration (MeCN 57.3% w/w, pH 10.50, 24 h, before removal of outliers) of the same compound?
**A.** 1.7 mg/mL

**Q.** And the GLP-1 peptide concentration (MeCN 57.3% w/w, pH 11.00, 5 min, after removal of outliers)?
**A.** 0.5 mg/mL

**Q.** What about the GLP-1 peptide concentration (MeCN 57.3% w/w, pH 11.00, 5 min, before removal of outliers) of the same compound?
**A.** 0.5 mg/mL

**Q.** What about the GLP-1 peptide concentration (MeCN 57.3% w/w, pH 11.00, 180 min, after removal of outliers) of the same compound?
**A.** >4.0 mg/mL

**Q.** What about the GLP-1 peptide concentration (MeCN 57.3% w/w, pH 11.00, 180 min, before removal of outliers) of the same compound?
**A.** >4.0 mg/mL

**Q.** And the GLP-1 peptide concentration (MeCN 57.3% w/w, pH 11.00, 24 h, after removal of outliers)?
**A.** 3.6 mg/mL

**Q.** And the GLP-1 peptide concentration (MeCN 57.3% w/w, pH 11.00, 24 h, before removal of outliers)?
**A.** 3.6 mg/mL

**Q.** What about the GLP-1 peptide concentration (MeCN 63.6% w/w, pH 7.50, 5 min, before removal of outliers) of the same compound?
**A.** 0.4 mg/mL

**Q.** And the GLP-1 peptide concentration (MeCN 63.6% w/w, pH 7.50, 180 min, before removal of outliers)?
**A.** 1.0 mg/mL

**Q.** What about the GLP-1 peptide concentration (MeCN 63.6% w/w, pH 7.50, 24 h, before removal of outliers) of the same compound?
**A.** 2.4 mg/mL

**Q.** And the GLP-1 peptide concentration (MeCN 63.6% w/w, pH 8.00, 5 min, after removal of outliers)?
**A.** 0.5 mg/mL

**Q.** And the GLP-1 peptide concentration (MeCN 63.6% w/w, pH 8.00, 5 min, before removal of outliers)?
**A.** 0.5 mg/mL

**Q.** And the GLP-1 peptide concentration (MeCN 63.6% w/w, pH 8.00, 180 min, after removal of outliers)?
**A.** 1.2 mg/mL

**Q.** And the GLP-1 peptide concentration (MeCN 63.6% w/w, pH 8.00, 180 min, before removal of outliers)?
**A.** 1.2 mg/mL

**Q.** And the GLP-1 peptide concentration (MeCN 63.6% w/w, pH 8.00, 24 h, after removal of outliers)?
**A.** 3.2 mg/mL

**Q.** And the GLP-1 peptide concentration (MeCN 63.6% w/w, pH 8.00, 24 h, before removal of outliers)?
**A.** 3.2 mg/mL

**Q.** What about the GLP-1 peptide concentration (MeCN 63.6% w/w, pH 8.50, 5 min, after removal of outliers) of the same compound?
**A.** 0.5 mg/mL

**Q.** What about the GLP-1 peptide concentration (MeCN 63.6% w/w, pH 8.50, 5 min, before removal of outliers) of the same compound?
**A.** 0.5 mg/mL

**Q.** What about the GLP-1 peptide concentration (MeCN 63.6% w/w, pH 8.50, 180 min, after removal of outliers) of the same compound?
**A.** 3.1 mg/mL

**Q.** And the GLP-1 peptide concentration (MeCN 63.6% w/w, pH 8.50, 180 min, before removal of outliers)?
**A.** 3.1 mg/mL

**Q.** And the GLP-1 peptide concentration (MeCN 63.6% w/w, pH 8.50, 24 h, after removal of outliers)?
**A.** 3.1 mg/mL

**Q.** And the GLP-1 peptide concentration (MeCN 63.6% w/w, pH 8.50, 24 h, before removal of outliers)?
**A.** 3.1 mg/mL

**Q.** And the GLP-1 peptide concentration (MeCN 63.6% w/w, pH 9.00, 5 min, after removal of outliers)?
**A.** 0.5 mg/mL

**Q.** What about the GLP-1 peptide concentration (MeCN 63.6% w/w, pH 9.00, 5 min, before removal of outliers) of the same compound?
**A.** 0.5 mg/mL

**Q.** What about the GLP-1 peptide concentration (MeCN 63.6% w/w, pH 9.00, 180 min, after removal of outliers) of the same compound?
**A.** 1.7 mg/mL

**Q.** What about the GLP-1 peptide concentration (MeCN 63.6% w/w, pH 9.00, 180 min, before removal of outliers) of the same compound?
**A.** 1.7 mg/mL

**Q.** What about the GLP-1 peptide concentration (MeCN 63.6% w/w, pH 9.00, 24 h, after removal of outliers) of the same compound?
**A.** >4.0 mg/mL

**Q.** What about the GLP-1 peptide concentration (MeCN 63.6% w/w, pH 9.00, 24 h, before removal of outliers) of the same compound?
**A.** >4.0 mg/mL

**Q.** What about the GLP-1 peptide concentration (MeCN 63.6% w/w, pH 9.50, 5 min, after removal of outliers) of the same compound?
**A.** 0.6 mg/mL

**Q.** What about the GLP-1 peptide concentration (MeCN 63.6% w/w, pH 9.50, 5 min, before removal of outliers) of the same compound?
**A.** 0.6 mg/mL

**Q.** What about the GLP-1 peptide concentration (MeCN 63.6% w/w, pH 9.50, 180 min, after removal of outliers) of the same compound?
**A.** 2.9 mg/mL

**Q.** What about the GLP-1 peptide concentration (MeCN 63.6% w/w, pH 9.50, 180 min, before removal of outliers) of the same compound?
**A.** 2.9 mg/mL

**Q.** And the GLP-1 peptide concentration (MeCN 63.6% w/w, pH 9.50, 24 h, after removal of outliers)?
**A.** 1.2 mg/mL

**Q.** What about the GLP-1 peptide concentration (MeCN 63.6% w/w, pH 9.50, 24 h, before removal of outliers) of the same compound?
**A.** 1.2 mg/mL

**Q.** And the GLP-1 peptide concentration (MeCN 63.6% w/w, pH 10.00, 5 min, after removal of outliers)?
**A.** 0.4 mg/mL

From US20210261642A1, “SOLUBILITY OF GLP-1 PEPTIDE” (Novo Nordisk A/S, priority 2017, published 2021)
